{"source": "patent US11654149B2", "about": "“Calmodulin inhibitors for the treatment of ribosomal disorders and ribosomapathies” (CHILDREN'S MEDICAL CENTER CORPORATION, priority 2012, dated 2023)", "key": {"[1]": {"tested_on": "rps29−/− zebrafish embryos", "experiment": "flk1 whole-mount in situ hybridization (intersegmental vessel staining) in rps29−/− embryo chemical screen", "format": "in vivo", "conditions": "rps29−/− embryos treated from bud to 23 hpf, flk1 ISH at 24 hpf", "experimental": "Fish were maintained under approved laboratory conditions.\n(§1) Whole-mount in situ hybridization (ISH) was performed as described (Thisse and Thisse, 2008). Antisense probes were synthesized from digested plasmid. O-Dianisidine was performed as described previously (Paffett-Lugassy and Zon, 2005)."}, "[2]": {"tested_on": "Human CD34+ cells", "experiment": "in vitro erythroid differentiation assay of CD34+ cells with RPS19 shRNA", "format": "cell-based", "set-up": "p21 mRNA: dose or concentration left out as unconfirmed", "conditions": "for rescue of CD71+ expression: day 10 of erythroid differentiation, flow cytometry", "experimental": "(§2) A549 and CD34+ cells were infected with previously characterized lentiviral shRNA targeting RPS19 (Dutt et al., 2011). Unless otherwise noted, drugs were added one day post infection, and cells were collected for analysis 3-6 days post infection.\n(§3) As DBA is a hematopoietic disorder, the inventors next tested the effects of A-3 in CD34+ cells with RPS19 knockdown by siRNA. In an in vitro system that mimics the differentiation of erythrocytes in vivo, the inventors knocked down RPS19 using shRNA. Human CD34+ cells are expanded in culture for 4 days and then infected with RPS19 shRNA or luciferase control shRNA lentiviral construct, selected with puromycin for 2 days and on day 7, the media is replaced with media containing high EPO to initiate erythroid differentiation (FIG. 6A). When RPS19 is reduced during erythroid differentiation, p21 mRNA levels increased about 6-fold compared to luciferase-infected controls and the transferrin receptor, CD71+ and a marker that is first detected at the proerythroblast stage, glycophorin A (GPA), are reduced 40% and 50%, respectively (Dutt et al., 2011)."}, "[3]": {"tested_on": "A549 cells", "experiment": "flow cytometry for annexin and propidium iodide in A549 cells", "format": "cell-based", "experimental": "(§4) FIGS. 4A-4D show treatment with A-3 inhibits p53 and p21 nuclear localization upon rps19 knockdown.\nas §2"}, "[4]": {"tested_on": "rps29 mutant embryos", "experiment": "benzidine staining for hemoglobin levels in rps29 mutant embryos", "format": "in vivo, zebrafish", "conditions": "benzidine staining at 40 hpf", "experimental": "Fish were maintained under approved laboratory conditions. […] .\nas §1"}, "[5]": {"tested_on": "A549 cells", "experiment": "immunofluorescence staining for p53 and p21 nuclear localization in A549 cells with RPS19 knockdown", "format": "cell-based", "conditions": "for p53 nuclear staining intensity: p=0.00028 for A-3; for p53 nuclear accumulation: A549 cells", "experimental": "as §2\n(§5) For flow cytometry based measurement of protein levels, cells were fixed in 2% paraformaldehyde for 15 minutes at 37° C., and methanol was added for overnight incubation at 4° C. Cells were incubated for one hour in 1:100 diluted p21 primary antibody (Cell Signaling 12D1) followed by one hour in conjugated secondary antibody and 1:50 diluted p53-conjugated antibody (Cell Signaling 1C12). Immunofluorescence staining was performed as previously described (Dutt et al., 2011).\nImmunofluorescence staining for p53 and p21 was performed on chemically treated cells (FIG. 4A). For 10-15 cells per condition, average nuclear and cytoplasmic intensity was determined using ImageJ."}, "[6]": {"tested_on": "calmodulin dependent PDE1", "conditions": "cited from earlier work"}, "[7]": {"tested_on": "A549 cells", "experiment": "cell cycle status by flow cytometry (propidium iodide) in A549 cells", "format": "cell-based", "experimental": "as §4, §2"}, "[8]": {"tested_on": "rps29−/− zebrafish embryos", "experiment": "head morphology scoring in rps29−/− embryo chemical screen", "conditions": "24 hpf", "quoted_text": "Fish were maintained under approved laboratory conditions. Studies were performed on AB wildtype strains and hi2903, an insertional mutant in the first intron of ribosomal protein S29 (rps29). Embryos were subjected to chemicals diluted in E3. For screening, chemicals from ICCB Biomol Known Bioactive, Sigma, and Lopac libraries were tested at 1:300 dilutions from library stock. Compounds were tested in two independent experiments of 20 embryos each, so approximately 10 mutant embryos were scored per chemical. […] Nimodipine (Enzo) was diluted in DMSO and tested in doses from 1.5 to 20 μg/mL. SNAP (Cayman) was diluted in DMSO and tested in doses from 0.5 to 5 μg/mL. YS-035 (Sigma) was diluted in water and treated in doses from 0.8 to 8 μg/mL. Vinpocetine (Enzo) was diluted in ethanol and treated in doses from 0.3 to 3 μg/mL.\nA screen was performed to identify chemicals that could rescue the endothelial and morphological defects of the rps29^−/− mutant embryo (FIG. 1A). Rps29^−/− fish were incrossed, and embryos were collected for treatment at bud stage (10 hpf). Embryos were treated from bud to 23 hpf with compounds of known bioactivity. After being scored for rescue of head morphology, embryos were fixed at 24 hpf for in situ hybridization of flk1 and rps29. Embryos without rps^29 staining (rps29^−/− mutants) were scored for rescue of flk1 intersegmental vessel staining."}, "[9]": {"tested_on": "CD34+ cells", "experiment": "p21 protein by FACS in CD34+ cells with RPS19 knockdown in erythroid proliferation media", "format": "cell-based, human", "experimental": "as §2, §5\nas §3, with “Human CD34+ cells are expanded in culture for 4 days and then infected with RPS19 shRNA or luciferase control shRNA lentiviral construct, selected with puromycin for 2 days and on day 7, the media is replaced with media containing high EPO to initiate erythroid differentiation (FIG. 6A).” left out"}, "[10]": {"tested_on": "A549 cells", "experiment": "flow cytometry of p53 and p21 protein in A549 cells with RPS19 shRNA", "format": "cell-based", "conditions": "for p21 protein level / p53 protein level: A549, RPS19 shRNA, drug 24 hours post infection, analyzed 3-6 days post infection", "experimental": "as §2, §5\nThe inventors next tested the effect of calmodulin inhibitors in A549 cells, where p53 is not mutated and is induced upon ribosomal protein knockdown (Fumagalli et al., 2009). A549 cells were infected with control or RPS19 shRNA and treated with A-3 or TFP 24 hours post infection. Cells were analyzed 3-6 days post infection. […] In addition, removal of drug leads to an increase in p21 levels within 24 hours (data not shown)."}, "[11]": {"tested_on": "human T cells subjected to ionizing radiation", "conditions": "read-out: EC50, prevention of apoptosis; cited from earlier work"}, "[12]": {"tested_on": "ion channel currents (calcium, potassium and sodium channels)", "conditions": "in vitro experiments and in animals; cited from earlier work"}, "[13]": {"conditions": "cited from earlier work"}, "[14]": {"conditions": "A549, RPS19 knockdown, ImageJ, 10-15 cells per condition"}}, "note": "Entries after “also recorded” stand apart in the source; their conditions may differ. Structures can show the parent of a compound that is named as a salt."}
{"smiles": "CC1(CN2CCC(n3c(=O)[nH]c4ccccc43)CC2)OCc2ccccc2-n2cccc21", "note": "(centres unmarked) [CGS-9343B, zaldaride maleate]", "values": [{"measurement": "rescue of flk1 expression / vasculature defect", "setting": "[1]", "value": "rescued flk1 expression"}]}
{"smiles": "OCCN1CCN(CCCN2c3ccccc3Sc3ccc(C(F)(F)F)cc32)CC1", "note": "[fluphenazine, 4-[3-[2-(trifluoromethyl)phenothiazin-10-yl]propyl]-1-piperazineethanol]", "values": [{"measurement": "rescue of blood cell differentiation", "setting": "[2]", "value": "can rescue blood cell differentiation"}, {"measurement": "rescue of CD71+ expression", "setting": "[2]; RPS19 shRNA", "value": "rescue CD71+ expression"}]}
{"smiles": "CCOC(=O)C1=C[C@]2(CC)CCCN3CCc4c(n1c1ccccc41)[C@@H]32", "note": "[Vinpocetine, ethyl apovincaminate]", "values": [{"measurement": "rescue of flk1 expression / vasculature defect", "setting": "[1]", "value": "a hit in the screen"}]}
{"smiles": "Cl.NCCCCCCCCCCNS(=O)(=O)c1cccc2c(Cl)cccc12", "note": "[A-7]", "values": [{"measurement": "rescue of flk1 expression / vasculature defect", "setting": "[1]", "value": "rescue the vasculature defect"}]}
{"smiles": "NCCNS(=O)(=O)c1cccc2c(Cl)cccc12", "note": "[A-3]", "values": [{"measurement": "rescue of flk1 expression / vasculature defect", "setting": "[1]", "value": "did not rescue the vasculature"}, {"measurement": "annexin V positivity", "setting": "[3]", "value": "increased annexin V positivity"}, {"measurement": "rescue of hemoglobin levels", "setting": "[4]", "value": "rescue hemoglobin levels"}, {"measurement": "p53 nuclear staining intensity", "setting": "[5]; [14]", "value": "decreased"}, {"measurement": "p21 nuclear staining intensity", "setting": "[5]; A549, RPS19 knockdown, ImageJ, 10-15 cells per condition, p=0.007 for A-3", "value": "decreased"}, {"measurement": "p53 nuclear accumulation", "setting": "[5]", "value": "reversed p53 nuclear accumulation"}, {"measurement": "inhibition of calmodulin dependent PDE1 compared with other calmodulin-dependent enzymes", "setting": "[6]", "value": "less effective inhibitor"}, {"measurement": "effect on RPS19 shRNA induced cell cycle arrest", "setting": "[7]", "value": "no obvious effect"}, {"measurement": "rescue of head morphology", "setting": "[8]", "value": "rescued the morphology"}, {"measurement": "concentration decreasing the levels of p21 in CD34+ cells", "setting": "[9]; CD34+ cells in an erythroid cell population in vitro", "value": "1 to 50", "unit": "µM"}, {"measurement": "p21 protein", "setting": "[9]; CD34+ cells, RPS19 knockdown, erythroid proliferation media", "value": "decrease p21 protein"}, {"measurement": "p21 protein level", "setting": "[10]", "value": "statistically significant decrease; also recorded: decrease of p21 protein"}, {"measurement": "p53 protein level", "setting": "[10]", "value": "still increased; also recorded: without a matching decrease of p53"}, {"measurement": "time of treatment until p21 protein levels begin to decrease", "setting": "[10]; A549, shorter treatment windows (FIG. 3E-3F, timecourse of A-3 treatment)", "value": "≤ 1.5", "unit": "h"}]}
{"smiles": "NC(=O)c1ccc2[nH]c(-c3ccc(Oc4ccc(Cl)cc4)cc3)nc2c1", "note": "[BML-277]", "values": [{"measurement": "rescue of CD71+ levels", "setting": "[2]; inhibitor panel against individual calmodulin-dependent enzymes", "value": "rescued CD71+ levels"}, {"measurement": "p53 nuclear accumulation", "setting": "[5]", "value": "prevented nuclear accumulation of p53"}, {"measurement": "EC50", "setting": "[11]", "value": "3 to 7.6", "unit": "µM"}]}
{"smiles": "Cl.NCCCCCCNS(=O)(=O)c1cccc2c(Cl)cccc12", "note": "[W-7, N-(6-Aminohexyl)-5-chloro-1-naphthalenesulfonamide hydrochloride]", "values": [{"measurement": "rescue of flk1 expression / vasculature defect", "setting": "[1]", "value": "rescue flk1 expression"}, {"measurement": "rescue of hemoglobin levels", "setting": "[4]", "value": "rescues hemoglobin levels"}]}
{"smiles": "CN1CCN(CCCN2c3ccccc3Sc3ccc(C(F)(F)F)cc32)CC1", "note": "[TFP, 10-[3-(4-methylpiperazin-1-yl)propyl]-2-(trifluoromethyl)-10H-phenothiazine]", "values": [{"measurement": "rescue of flk1 expression / vasculature defect", "setting": "[1]", "value": "rescued flk1 expression"}, {"measurement": "annexin V positivity", "setting": "[3]", "value": "increased annexin V positivity"}, {"measurement": "rescue of blood cell differentiation", "setting": "[2]", "value": "can rescue blood cell differentiation"}, {"measurement": "p21 mRNA", "setting": "[2]; RPS19 shRNA, quantitative PCR", "value": "decreased p21 mRNA to control levels"}, {"measurement": "rescue of CD71+ expression", "setting": "[2]; RPS19 shRNA", "value": "rescue CD71+ expression"}, {"measurement": "concentration restoring the percentage of CD71+ cells", "setting": "[2]; erythroid cell population in vitro", "value": "5 to 20", "unit": "µM"}, {"measurement": "p53 nuclear staining intensity", "setting": "[5]; [14]", "value": "same effect was seen"}, {"measurement": "p53 nuclear accumulation", "setting": "[5]", "value": "reversed p53 nuclear accumulation"}, {"measurement": "effect on RPS19 shRNA induced cell cycle arrest", "setting": "[7]", "value": "no obvious effect"}, {"measurement": "p21 protein level", "setting": "[10]", "value": "statistically significant decrease; also recorded: decrease of p21 protein"}, {"measurement": "p53 protein level", "setting": "[10]", "value": "still increased; also recorded: without a matching decrease of p53"}]}
{"smiles": "CC(=O)N[C@@H](C(=O)O)C(C)(C)SN=O", "note": "(racemic) [SNAP]", "values": [{"measurement": "rescue of flk1 expression / vasculature defect", "setting": "[1]", "value": "rescued flk1 intersegmental vessel staining"}]}
{"smiles": "Cl.NCCCCCCNS(=O)(=O)c1cccc2ccccc12", "note": "[W-5]", "values": [{"measurement": "rescue of flk1 expression / vasculature defect", "setting": "[1]", "value": "rescue the vasculature defect"}]}
{"smiles": "CC(C)COCC(CN(Cc1ccccc1)c1ccccc1)N1CCCC1", "note": "(centres unmarked) [bepridil]", "values": [{"measurement": "IC50 for these processes", "setting": "[12]", "value": "low micromolar range"}]}
{"smiles": "COc1ccc(CCN(C)CCc2ccc(OC)c(OC)c2)cc1OC", "note": "[YS-035]", "values": [{"measurement": "rescue of flk1 expression / vasculature defect", "setting": "[1]", "value": "rescued the vasculature defect"}]}
{"smiles": "OCCN1CCN(CCCN2c3ccccc3Sc3ccc(Cl)cc32)CC1", "note": "[perphenazine, 4-[3-(2-Chloro-10H-phenothiazin-10-yl)propyl]-1-piperazineethanol]", "values": [{"measurement": "rescue of blood cell differentiation", "setting": "[2]", "value": "can rescue blood cell differentiation"}, {"measurement": "oral bioavailability", "setting": "[13]", "value": "approximately 40%"}]}
